Tests used:
[1] = system: ptosis induced by reserpine; assay: Antagonism of ptosis induced by reserpine; assay type: in vivo, mouse (female CDI Charles River); conditions: Mus musculus, ip, simultaneous with reserpine 2 mg/kg i.v.; read 1 hour after; batches of 10 mice
Method: Antagonism of ptosis induced by reserpine This test described by GOURET (Journal de Pharmacologie, Paris, 1973, 4 (1), 105-128) was carried out on the female CDI (Charles River) mouse weighing 20±1 g. Reserpine induces a ptosis 1 hour after its intravenous administration; certain antidepressants oppose this ptosis. The following protocol was chosen. The substances to be studied were administered i.p. The reserpine was administered simultaneously by the intravenous route at the dose of 2 mg/kg. 1 hour after administration of reserpine, the number of animals not presenting ptosis was noted. This test was carried out on batches of 10 mice and the percentage of animals not presenting ptosis was determined. The results are expressed in effective dose 50 (ED50) or dose preventing ptosis in 50% of the animals treated.

[2] = system: central serotoninergic transmission; assay: Potentialization of the head twitches induced by 5-hydroxytryptophane (5-HTP test); assay type: in vivo, mouse (female CDI Charles River); conditions: 1 hour before 5-hydroxytryptophane 200 mg/kg i.p., % with respect to control mice
Method: Potentialization of the head twitches induced by 5-hydroxytryptophane
The 5-hydroxytryptophane, precursor of the 5-hydroxytryptamine, induces in the mouse typical behaviour characterized by sudden head twitches.
At time zero, the product to be studied is administered by the intraperitoneal route then, 1 hour afterwards, a single dose (200 mg/kg) of 1-5-hydroxytryptophane in suspension in distilled water is in turn administered by the same route. Each animal (female CDI Charles River mouse weighing from 22 to 24 g) is immediately placed in a cylindrical glass beaker. The number of head twitches is counted for 20 minutes.
For each dose of the product to be tested, batches of 10 animals are experimented on, in comparison with a control batch which receives only the vehicle.
The results are expressed in % with respect to the average score obtained in the control mice.

monoamine oxydase A = molecular target: T1, monoamine oxydase A (Rattus norvegicus, UniProt P21396); assay: Measurement of the MAO A activity in vitro; assay type: biochemical; conditions: rat striatum, 14C 5-hydroxytryptamine 480 μM, pH 7.40, 10 minutes
T1 construct: using the striatum of rate as source of enzyme; from tissue; host or cells: rat striatum homogenate
T1 sequence (P21396 1-526): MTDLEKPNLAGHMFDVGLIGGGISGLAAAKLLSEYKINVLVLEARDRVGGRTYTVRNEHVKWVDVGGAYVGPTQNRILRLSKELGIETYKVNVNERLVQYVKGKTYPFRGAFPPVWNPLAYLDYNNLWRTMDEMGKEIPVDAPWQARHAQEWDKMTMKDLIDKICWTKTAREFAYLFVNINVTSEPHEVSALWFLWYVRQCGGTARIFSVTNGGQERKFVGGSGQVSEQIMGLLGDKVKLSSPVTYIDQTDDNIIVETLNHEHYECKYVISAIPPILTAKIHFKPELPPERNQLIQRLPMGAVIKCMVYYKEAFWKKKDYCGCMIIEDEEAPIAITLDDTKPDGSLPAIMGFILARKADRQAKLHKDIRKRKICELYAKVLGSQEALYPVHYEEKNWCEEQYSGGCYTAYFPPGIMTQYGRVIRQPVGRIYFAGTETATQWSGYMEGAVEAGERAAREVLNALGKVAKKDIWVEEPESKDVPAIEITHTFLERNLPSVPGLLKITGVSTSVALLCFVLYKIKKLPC
Method: Measurement of the MAO A activity in vitro
After dissection, the tissues are homogenized in 16 volumes (weight per volume) of iced phosphate buffer (0.1M, pH=7.40). […] The acid metabolites are extracted in 7 ml of a toluene/ethyl acetate (1:1, vol/vol) mixture then counted by liquid scintillation. The concentration of the product tested which inhibits the control activity by 50% (I.C.50) is determined graphically.

dopaminergic activity = assay: Rotations test: behaviour of rotation after unilateral lesion of the striatum (dopaminergic activity); assay type: in vivo, mouse (female Charles River CDI); conditions: 1 hour after administration, counted for 2 minutes
Method: This was studied by analysis of the behaviour of rotation in the mouse after unilateral lesion of the striatum (P. Protais et al., J. Pharmacol., 1976, 7, 251).
Female Charles River CDI mice weighing from 20 to 24 g were previously subjected to a unilateral lesion of the striatum by stereotaxic injection of 6-hydroxydopamine at the rate of 8 mcg per animal. One week after this operation, the products to be studied were administered by the intraperitoneal route to groups of 7 mice. 1 hour after administration of the product, the number of rotations is determined for a period of 2 minutes. The rotations ispilateral with respect to the lesion are counted positively and the contralateral rotations are counted negatively.
The algebraic sum of the rotations for a group of treated animals is compared with that of the group of control animals having received only the vehicle (physiological serum).
The results are expressed in % variation of the rotations of the treated animals with respect to the control animals.

[3] = molecular target: cholinergic receptors of muscarinic type; assay type: binding; conditions: rat cerebra without cerebellum, 0.05 nM QNB (^3 H), 25° C., 1 hour, pH 7.4; read-out: Bond with QNB (^3 H) IC50
[4] = dose 10 mg/kg i.p., result in words

Row | Compound | ED50 [1] | 5-HTP test % variation ([2]; dose 8 mg/kg i.p., **p 0.01) | MAO A Inhibition IC50 (monoamine oxydase A) | Rotations test % variation (dopaminergic activity; [4]) | IC50 [3] | 5-HTP test % variation ([2]; dose 7.5 mg/kg i.p., *p 0.05) | 5-HTP test % variation ([2]; dose 10 mg/kg i.p., *p 0.05) | Rotations test % variation (dopaminergic activity; dose 0.5 mg/kg i.p., vs control animals, **p 0.01)
1 | Cc1cc(-c2ccsc2)nnc1NCCN1CCOCC1.Cl.Cl [CM 30388, 3-morpholinoethylamino-4-methyl-6-(3-thienyl)-pyridazine, dihydrochloride] | 10.3 mg/kg | 647% | 7.8 mg/kg | Inactive | 18 µM | – | – | –
2 | Cc1cc(-c2cccs2)nnc1NCCN1CCOCC1.Cl.Cl [CM 30387, 3-morpholinoethylamino-4-methyl-6-(2-thienyl)pyridazine, dihydrochloride] | 4.8 mg/kg | 632% | 10 mg/kg | Inactive | 24 µM | – | – | –
3 | Cc1cc(C2CCCCC2)nnc1NCCN1CCOCC1.Cl.Cl [CM 30390, 3-morpholinoethylamino-4-methyl-6-cyclohexyl-pyridazine; dihydrochloride] | 4.5 mg/kg | – | – | Inactive | 14 µM | 219% | – | –
4 | Cc1cc(-c2ccccc2)nnc1NCCN1CCOCC1 [Minaprine, reference compound] | 5 mg/kg | – | 16 mg/kg | – | 100 µM | – | 257% | -79%

Reference: US4524070A, “Aminated derivatives of pyridazine substituted in 6 position by a heterocycle or an alicycle and compositions, said derivatives being active on the central nervous system” (Sanofi, priority 1983, dated 1985)
